Test results from BindingDB's records for doi:10.1016/j.bmcl.2019.05.048 (Bristol-Myers Squibb, 2019).
pIC50: −log10 of the molar value.

Target: Hepatic lipase (Mouse)
Assay: Inhibition of hepatic lipase in endothelial lipase knock-out mouse plasma using D31-POPC-HDL as substrate incubated for 2 hrs by LC/MS analysis

pIC50: 4.59
Compound: COCCS(=O)(=O)C(C(=O)NCC(=O)NC1CC1)c1nc2ccc(-c3ccc(F)nc3)cc2s1 (stereo unspecified)
